Test results: patent US20250230155A1 (Vanderbilt University, priority 2021, published 2025)

Molecular target: T1, human mAChR M4 (Homo sapiens, UniProt P08173)
T1 construct: expressed in transfected cells
T1 sequence (P08173 1-479): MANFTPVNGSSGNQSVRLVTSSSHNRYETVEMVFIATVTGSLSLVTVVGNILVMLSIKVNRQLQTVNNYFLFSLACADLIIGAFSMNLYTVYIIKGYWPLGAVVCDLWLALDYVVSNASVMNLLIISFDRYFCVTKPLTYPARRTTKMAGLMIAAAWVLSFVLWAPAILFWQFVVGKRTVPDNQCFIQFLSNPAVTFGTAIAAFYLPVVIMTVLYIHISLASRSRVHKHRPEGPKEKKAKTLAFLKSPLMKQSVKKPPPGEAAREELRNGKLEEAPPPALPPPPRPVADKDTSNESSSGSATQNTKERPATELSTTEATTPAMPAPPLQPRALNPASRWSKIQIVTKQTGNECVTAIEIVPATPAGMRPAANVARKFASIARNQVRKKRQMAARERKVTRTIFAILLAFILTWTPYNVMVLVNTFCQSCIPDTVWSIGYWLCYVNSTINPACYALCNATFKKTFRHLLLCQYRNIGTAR
Experiment: mAChR M4 cell-based functional assay (calcium mobilization, CHO-K1 hM4-Gqi5 cells)
Conditions: for Emax at 30 µM: CHO-K1, % ACh maximum at 30 μM, human M4; for EC50: positive allosteric modulator activity, increase in the EC20 acetylcholine response, CHO-K1 hM4-Gqi5 cells, read-out: Human M4 EC50; for Emax: CHO-K1
In short: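 Fluorescent calcium read-out (Fluo-4 AM, FDSS, 1 Hz) in hM4-Gqi5 CHO-K1 cells, 11-point 1:3 compound series. Agonism scored on compound addition, PAM activity as increase of the 144 s EC20 acetylcholine response, antagonism as decrease of the 230 s EC80 response; four-parameter logistic fits give EC50 and Emax.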

Compound	Emax at 30 µM [%]	EC50 [µM]	Emax [%]
Cc1c(C#N)nnc(N2CCc3ncc(Nc4ccccc4Cl)cc3C2)c1C [compound 39, 6-[3-(2-chloroanilino)-7,8-dihydro-5H-1,6-naphthyridin-6-yl]-4,5-dimethyl-pyridazine-3-carbonitrile]	73	0.239	
Cc1c(C#N)nnc(N2CCc3ncc(-c4cnn(CC(C)(C)O)c4)cc3C2)c1C [Example 327, 6-(3-(1-(2-hydroxy-2-methylpropyl)-1H-pyrazol-4-yl)-7,8-dihydro-1,6-naphthyridin-6(5H)-yl)-4,5-dimethylpyridazine-3-carbonitrile]	68	1.91	
Cc1cnc2c(c1)CN(c1nnc(C(=O)NCc3ccncc3C)c(C)c1C)CC2 [Example 472, 4,5-dimethyl-6-(3-methyl-7,8-dihydro-1,6-naphthyridin-6(5H)-yl)-N-((3-methylpyridin-4-yl)methyl)pyridazine-3-carboxamide]	99	0.071	
Cc1c(Cl)nc(C(F)(F)F)nc1N1CCc2ncc(C3CC3)cc2C1 [compound 242, 6-(6-chloro-5-methyl-2-(trifluoromethyl)pyrimidin-4-yl)-3-cyclopropyl-5,6,7,8-tetrahydro-1,6-naphthyridine]	83	1.87	
[2H]C1([2H])Cc2ncc(Nc3ccncc3C)cc2C([2H])([2H])N1c1nnc(C#N)c(C)c1C [Example 609, 4,5-dimethyl-6-(3-((3-methylpyridin-4-yl)amino)-7,8-dihydro-1,6-naphthyridin-6(5H)-yl-5,5,7,7-d4)pyridazine-3-carbonitrile]	56	0.753	
Cc1cc(C#N)nnc1N1CCc2ncc(-n3cccn3)cc2C1 [Example 400, 6-(3-(1H-pyrazol-1-yl)-7,8-dihydro-1,6-naphthyridin-6(5H)-yl)-5-methylpyridazine-3-carbonitrile]	56	1.05	
Cc1nc(C)c(C)c(N2CCc3ncc(C(F)(F)F)cc3C2)n1 [compound 235, 3-(trifluoromethyl)-6-(2,5,6-trimethylpyrimidin-4-yl)-5,6,7,8-tetrahydro-1,6-naphthyridine]	87	0.35	
Cc1cc(C#N)cnc1N1CCc2ncc(N3CCN(C)C(=O)C3)cc2C1 [Example 409, 5-methyl-6-(3-(4-methyl-3-oxopiperazin-1-yl)-7,8-dihydro-1,6-naphthyridin-6(5H)-yl)nicotinonitrile]	96	1.1	
Cc1nc(Cl)c(C)c(N2CCc3ncc(Nc4ccnn4C)cc3C2)n1 [compound 212, 6-(6-chloro-2,5-dimethylpyrimidin-4-yl)-N-(1-methyl-1H-pyrazol-5-yl)-5,6,7,8-tetrahydro-1,6-naphthyridin-3-amine]	98	0.065	
Cc1cc(C#N)cnc1N1CCc2ncc(-c3ccns3)cc2C1 [compound 291, 6-(3-(isothiazol-5-yl)-7,8-dihydro-1,6-naphthyridin-6(5H)-yl)-5-methylnicotinonitrile]	96	0.088	
Cc1cc(C#N)cnc1N1CCc2ncccc2C1 [compound 45, 6-(7,8-dihydro-5H-1,6-naphthyridin-6-yl)-5-methyl-pyridine-3-carbonitrile]		1.19	97
Cc1c(C#N)nnc(N2CCc3ncc(Nc4ccnn4C)cc3C2)c1C [compound 169, 4,5-dimethyl-6-[3-[(2-methylpyrazol-3-yl)amino]-7,8-dihydro-5H-1,6-naphthyridin-6-yl]pyridazine-3-carbonitrile]	100	0.111	
Cc1cnc2c(c1)CN(c1nnc(C#N)cc1C)CC2 [Example 305, 5-methyl-6-(3-methyl-7,8-dihydro-1,6-naphthyridin-6(5H)-yl)pyridazine-3-carbonitrile]		0.537	105
Cc1c(C#N)nnc(N2CCc3ncc(-c4ccc(N5CCN(C6CC6)CC5)nc4)cc3C2)c1C [Example 335, 6-(3-(6-(4-cyclopropylpiperazin-1-yl)pyridin-3-yl)-7,8-dihydro-1,6-naphthyridin-6(5H)-yl)-4,5-dimethylpyridazine-3-carbonitrile]	41	0.386	
Cc1cc(C(=O)N2CC(C(F)F)C2)nnc1N1CCc2ncc(-c3ccnn3C)cc2C1 [Example 562, (3-(difluoromethyl)azetidin-1-yl)(5-methyl-6-(3-(1-methyl-1H-pyrazol-5-yl)-7,8-dihydro-1,6-naphthyridin-6(5H)-yl)pyridazin-3-yl)methanone]	74	0.091	
Cc1cc(C(=O)Nc2ccncc2)cnc1N1CCc2ncc(-c3cn(C)nc3C)cc2C1 [Example 450, 6-(3-(1,3-dimethyl-1H-pyrazol-4-yl)-7,8-dihydro-1,6-naphthyridin-6(5H)-yl)-5-methyl-N-(pyridin-4-yl)nicotinamide]	71	0.215	
Cc1cc(C#N)nnc1N1Cc2cc(N3CCOCC3)cnc2C(C)C1 (stereo not shown) [Example 404, 5-methyl-6-(8-methyl-3-morpholino-7,8-dihydro-1,6-naphthyridin-6(5H)-yl)pyridazine-3-carbonitrile]	72	0.901	
Cc1cc(C(=O)N2CCc3cnccc3C2)nnc1N1CCc2ncc(C(F)(F)F)cc2C1 [Example 498, (3,4-dihydro-2,6-naphthyridin-2(1H)-yl)(5-methyl-6-(3-(trifluoromethyl)-7,8-dihydro-1,6-naphthyridin-6(5H)-yl)pyridazin-3-yl)methanone]	85	3.17	
Cc1cc(C(=O)N2CC(C(F)F)C2)nnc1N1CCc2ncc(N3CCCn4nccc43)cc2C1 [Example 524, (3-(difluoromethyl)azetidin-1-yl)(6-(3-(6,7-dihydropyrazolo[1,5-a]pyrimidin-4(5H)-yl)-7,8-dihydro-1,6-naphthyridin-6(5H)-yl)-5-methylpyridazin-3-yl)methanone]	93	0.018	
Cc1cnc2c(c1)CN(c1ncc(C(=O)NCc3cncs3)cc1C)CC2 [Example 439, 5-methyl-6-(3-methyl-7,8-dihydro-1,6-naphthyridin-6(5H)-yl)-N-(thiazol-5-ylmethyl)nicotinamide]	108	0.138	
Cc1cc(C(=O)N2CC(CO)(CO)C2)nnc1N1CCc2ncc(CC(F)(F)F)cc2C1 [Example 584, (3,3-bis(hydroxymethyl)azetidin-1-yl)(5-methyl-6-(3-(2,2,2-trifluoroethyl)-7,8-dihydro-1,6-naphthyridin-6(5H)-yl)pyridazin-3-yl)methanone]	91	0.533	
Cc1cc(C(=O)NCc2ccc3nccnc3c2)cnc1N1CCc2ncccc2C1 [compound 157, 6-(7,8-dihydro-5H-1,6-naphthyridin-6-yl)-5-methyl-N-(quinoxalin-6-ylmethyl)pyridine-3-carboxamide]	57	3.48	
[2H]C([2H])([2H])c1cnc2c(c1)CN(c1nnc(C(=O)NCc3ccncc3)cc1C)CC2 [Example 579, 5-methyl-6-(3-(methyl-d3)-7,8-dihydro-1,6-naphthyridin-6(5H)-yl)-N-(pyridin-4-ylmethyl)pyridazine-3-carboxamide]	111	0.05	
Cc1ccc(Oc2cnc3c(c2)CN(c2nc(C)nc(C)c2C)CC3)c(F)c1 [compound 269, 3-(2-fluoro-4-methylphenoxy)-6-(2,5,6-trimethylpyrimidin-4-yl)-5,6,7,8-tetrahydro-1,6-naphthyridine]	89	1.08	
Cc1cnc2c(c1)CN(c1nnc(C(=O)NCc3csc4ccccc34)c(C)c1C)CC2 [Example 470, N-(benzo[b]thiophen-3-ylmethyl)-4,5-dimethyl-6-(3-methyl-7,8-dihydro-1,6-naphthyridin-6(5H)-yl)pyridazine-3-carboxamide]	102	0.278	
Cc1cc(C#N)nnc1N1CCc2ncc(N3CCCn4nc(C(F)(F)F)cc43)cc2C1 [Example 413, 5-methyl-6-(3-(2-(trifluoromethyl)-6,7-dihydropyrazolo[1,5-a]pyrimidin-4(5H)-yl)-7,8-dihydro-1,6-naphthyridin-6(5H)-yl)pyridazine-3-carbonitrile]	102	0.257	
Cc1cncc(-c2cnc3c(c2)CN(c2nnc(C#N)c(C)c2C)CC3)c1 [Example 435, 4,5-dimethyl-6-(3-(5-methylpyridin-3-yl)-7,8-dihydro-1,6-naphthyridin-6(5H)-yl)pyridazine-3-carbonitrile]	61	0.914	
CNC(=O)c1cnc(N2CCc3ncccc3C2)c(C)c1 [compound 57, 6-(7,8-dihydro-5H-1,6-naphthyridin-6-yl)-N,5-dimethyl-pyridine-3-carboxamide]		≥ 10	63
Cc1cc(C(=O)NCc2cscn2)cnc1N1CCc2ncc(-c3ccc(C4CC4)nc3)cc2C1 [Example 484, 6-(3-(6-cyclopropylpyridin-3-yl)-7,8-dihydro-1,6-naphthyridin-6(5H)-yl)-5-methyl-N-(thiazol-4-ylmethyl)nicotinamide]	88	0.176	
